From patent US9408816B2, “Method of using histone deacetylase inhibitors and monitoring biomarkers in combination therapy” (Pharmacyclics LLC, priority 2006, dated 2016)

Key:
[1] = system: RAD51 in HCT116 cells; assay: RAD51 protein levels by Western blotting in HCT116 cells; type: cell-based; conditions: by 24 hours, HCT-116 in vitro
Description: (§1) To explore this further, we analyzed levels of RAD51, an essential protein in HR, by Western blotting and immunofluorescence. Following exposure of HCT116 cells to doses of the test compound ranging from 0.2 μM to 2.0 μM, RAD51 levels decreased to 20% of control by 24 hr, but remained unchanged at 6 hr. […] Finally, RAD51 nuclear foci were visualized following γ-irradiation.
For determination of protein levels by Western blot, cellular extracts are prepared as follows. Cells are harvested by scraping; washed with PBS and pelleted by centrifugation. Cell pellets (from 100 mm plate) are resuspended with 200 μl B3 buffer containing protease inhibitors shaken at 4° C. for 10 min and centrifuge at 12,000 rpm at 4° C. in Tomy microcentrifuge for 10 minutes. To make 1 liter of B3 buffer, add 1 ml of NP-40, 50 ml of 5 M NaCl, 10 ml of […], 50 ml of 1 M Tris HCl at pH7.5 to 889 ml dH2O. The day of cell harvest protease inhibitors are added to B3 buffer (aprotinin, leupeptin and pepstatin to a final concentration of 2 μg/ml, 5 μg/ml and 0.7 μg/ml, respectively). […] Sample protein concentrations are determined by the Bradford Assay (BioRad; Richmond, Calif.). […]
Western Blot Analysis: Cell lines [al NHL except for Jurkat (T-cll leukemia) and K562 (CML)] were treated with PCI-24781 for the designated times, lysed and total protein was quantitated and western blot analysis performed. […]

[2] = system: RAD51 transcript in HCT116 cells; assay: RAD51 transcript levels by real time PCR in HCT116 cells; type: cell-based; conditions: by 24 hours, HCT-116 in vitro
[3] = system: RAD51 foci in irradiated HCT-116 cells; assay: RAD51 nuclear foci following γ-irradiation; type: cell-based; conditions: pretreatment for 24 hours
Description: as §1
Monolayer cultures of different cells are grown in Dulbecco's MEM medium supplemented with 10% fetal bovine serum and antibiotics. The cells are detached from culture flasks by gentle trypsinization, pelleted and resuspended in phosphate buffered saline (PBS; 136 mM NaCl, 2 mM KCG, 10.6 mM NaHPO4, 1.5 mM KH2PO4 [pH 7.3]) prewarmed at 37° C. (Haaf, et al., 1995, Proc. Natl. Acad. Sci. USA 92: 2298-2302). Cultured cells are washed and resuspended in PBS. The density of somatic cells is adjusted to about 10^5 cells per ml in PBS. Aliquots (0.5 ml) of the cell suspension are centrifuged onto clean glass slides at 800 rpm for 4 min, in a Cytospin (Shandon, Pittsburg). Immediately after cytocentrifugation, the slides are fixed in −20° C. methanol for 30 min and then immersed in ice-cold acetone for a few seconds to permealize the cells for antibody staining. […]

[4] = system: RAD51 protein in NHL cell lines; assay: RAD51 protein downregulation in Non-Hodgkins lymphoma cell lines (Western blot); type: cell-based; conditions: 24 hours, most of the cell lines tested
Description: (§2) Western Blot Analysis: Cell lines [al NHL except for Jurkat (T-cll leukemia) and K562 (CML)] were treated with PCI-24781 for the designated times, lysed and total protein was quantitated and western blot analysis performed. RAD51 and Actin antibodies were from Santa Cruz.

[5] = system: RAD51 protein in HH cutaneous T-cell lymphoma cell line; assay: RAD51 protein downregulation in HH cell line (Western blot); type: cell-based; conditions: 24 hours
Description: as §2

[6] = system: RAD51 mRNA in lymphoma cell lines; assay: RAD51 mRNA by Taqman RT-PCR in lymphoma cell lines; type: cell-based
Description: (§3) Tagman Gene Expression Assays: 10 lymphoma cell lines were treated with PCI-24781 for various times and total RNA was isolated and quantitated. Taqman assays were set up using the Taqman master mix (Applied Biosystems) and 50 ng of total RNA as template. Gene expression assay probe sets for RAD51 was purchased from Applied Biosystems.
(§4) Cell lines were treated with 3-((dimethylamino)methyl)-N-(2-(4-(hydroxycarbamoyl)phenoxy)ethyl)benzofuran-2-carboxamide for 24 hours, and RAD51 mRNA was analyzed by Taqman RT-PCR.

[7] = system: RAD51 mRNA in HH cell line; assay: RAD51 mRNA by Taqman RT-PCR in HH cell line; type: cell-based; conditions: 24 hours
Description: as §3, §4

[8] = system: lymphoma cell lines; assay: Apoptosis by Annexin V-FITC flow cytometry in lymphoma cell lines; type: cell-based
Description: (§5) 3-((dimethylamino)methyl)-N-(2-(4-(hydroxycarbamoyl)phenoxy)ethyl)benzofuran-2-carboxamide induced apoptosis in lymphoma cell lines after a 48 hour incubation measured by Annexin V-FITC flow cytometry. […] Thus, both the initial level of RAD51 in tumors as well as the fold decrease after treatment are predictive for 3-((dimethylamino)methyl)-N-(2-(4-(hydroxycarbamoyl)phenoxy)ethyl)benzofuran-2-carboxamide activity, and in some embodiments is used as biomarkers in clinical studies to identify patients most likely to respond to 3-((dimethylamino)methyl)-N-(2-(4-(hydroxycarbamoyl)phenoxy)ethyl)benzofuran-2-carboxamide.

[9] = system: HH lymphoma line; assay: Apoptosis by Annexin V-FITC flow cytometry in HH line; type: cell-based
Description: as §5

[10] = system: DHL-4 Non-Hodgkins cell line; assay: Combination with doxorubicin in DHL-4; type: cell-based; conditions: administered simultaneously
[11] = system: DLCL2 Non-Hodgkins cell line; assay: Combination with doxorubicin in DLCL2; type: cell-based; conditions: administered simultaneously
[12] = system: HH cell line; assay: Combination with doxorubicin in HH; type: cell-based; conditions: administered simultaneously
[13] = system: RAD51 in HCT-116 mouse xenografts; assay: RAD51 levels in HCT-116 xenograft tumors; conditions: HCT-116, in vivo (not shown)
Description: Also shown are RAD51 levels and actin levels after extraction of tumor from HCT-116 mouse xenografts with different dosing regimens. 1× animals received a single oral dose 4 hours before the end of the study; 2× animals received one oral dose 28 hours before the end of the study and received a second dose 6 hours later; 3× animals were dosed as in the 2× but also received a third dose the following morning, 24 hours after the first dose was administered and 4 hours before the end of the study. Fold changes in protein levels were quantitated by using Odyssey software and were normalized to the levels of the actin loading control.
3-((dimethylamino)methyl)-N-(2-(4-(hydroxycarbamoyl)phenoxy)ethyl)benzofuran-2-carboxamide pretreatment for 24 hours also lead to complete loss of RAD51 foci in the nuclei of irradiated HCT-116 cells (not shown; see Adimoolam et al. 2007, PNAS epub Nov. 27 the experiment, which is herein incorporated by reference).

## CN(C)Cc1c(C(=O)NCCOc2ccc(C(=O)NO)cc2)oc2ccccc12 [3-((dimethylamino)methyl)-N-(2-(4-(hydroxycarbamoyl)phenoxy)ethyl)benzofuran-2-carboxamide]
[1]
  RAD51 protein levels: downregulating RAD51
[2]
  RAD51 mRNA levels: downregulating RAD51
[3]
  RAD51 foci in the nuclei: complete loss
[4]
  RAD51 protein levels: downregulated RAD51 protein levels in a dose-dependent manner
[4]; listed as 3-((dimethylamino)methyl) -N-(2-(4-(hydroxycarbamoyl)phenoxy)ethyl)benzofuran-2-
  RAD51 protein levels: downregulated RAD51 protein levels
[5]
  effect on RAD51 protein levels: least effect
[6]; 24 hours, most of the cell lines
  downregulation of RAD51 mRNA expression: more than 2 fold
[6]; the five cell lines with >70% apoptosis
  decrease in RAD51 mRNA: > 4 fold
[7]
  RAD51 mRNA change: no decrease
[8]; 48 hour incubation, all the lines except HH
  apoptotic cell death: dose-dependent increase in apoptotic cell death
[8]; at 24 hrs, all the lines
  apoptosis: lower levels of apoptosis
[8]; five most sensitive cell lines
  apoptosis following drug treatment: > 70%
[9]
  apoptosis: least % apoptosis
[10]
  combination effect with doxorubicin: synergistic effects
[11]
  combination effect with doxorubicin: synergistic effects
[12]
  combination effect with doxorubicin: less than additive
[13]
  RAD51 levels in vivo: downregulating RAD51
